Laboratory results: patent US20220282222A1, “BIO-PRINTED KIDNEY TISSUE” (MURDOCH CHILDREN'S RESEARCH INSTITUTE, priority 2019, published 2022)
Entries after “also recorded” stand apart in the source; their conditions may differ. Where two headings read alike, the source gives them in different places.

Key:
[1] = system: bio-printed kidney organoids; assay: Organoid viability assessment by ATP content (CellTiter-Glo / CellTiter-Glo 3D) after drug treatment; details: for IC50: Homo sapiens, 72 h; for Cell viability as measured by cellular ATP content: 96-well format, 72-hour treatment, wide concentration range (1.5 μg/mL to 25 mg/mL)
Description: (§1) Doxorubicin (Sigma-Aldrich, D1515) stock solution was prepared in DMSO. Amikacin, Tobramycin, Gentamycin, Neomycin, and Streptomycin were all procured through Sigma Aldrich (St. Louis, Mo.) and prepared as a 25 mg/ml solution in APEL media. Dosing for 6-well nephrotoxicity studies was performed by initially diluting doxorubicin DMSO stock in APEL media, and subsequently diluting further with additional media to achieve concentrations ranging from 0.3 to 10 μM. Dosing for 96-well nephrotoxicity evaluation was performed by serial dilution. For Doxorubicin, serial dilution of DMSO stocks was added to APEL media to achieve concentrations ranging from 24 nM to 25 μM. Aminoglycoside stock solutions were diluted serially with APEL media to generate dosing concentrations ranging from 1.5 μg/mL to 25 mg/mL. Drug dosing was initiated after day 21 or day 22 of the differentiation protocol. Dosing was performed by applying the full well volume of APEL medium±test article to the apical basket of a Transwell permeable support (4 mL for 6-well plates, 300 μL for 96-well plates). As media containing test articles was added to the Transwell permeable support, the organoids were fully submerged and exposed to any added compounds as the apical and basolateral compartments equilibrated. Drug-supplemented medium was replaced every other day until designated harvest time point.
Kidney organoid viability following drug treatment was assessed by measuring ATP content with CellTiter-Glo or CellTiter-Glo 3D viability assays (Promega, Madison, Wis., USA). In brief, harvested organoids from bio-printed in 6-well plates were individually loaded into Precellys tubes (Bertin Technologies, Bretonneux, France) with CellTiter-Glo buffer and dissociated using a Precellys 24 tissue homogenizer (Bertin Technologies, Bretonneux, France). Homogenized organoids were incubated at room temperature for 10 minutes, then centrifuged at 1000 g for 2 minutes to separate buffer from homogenizing beads. Supernatants were transferred to a white opaque 96-well plate for luminescence measurement on a microplate reader (BMG Labtech, Germany). […] To analyse the ATP content in organoids bio-printed on 96-well plates, all media was aspirated and CellTiter-Glo 3D reagent was added to the apical chamber of Transwell permeable support. The plate was shaken at 400 rpm for 5 minutes at room temperature, and then allowed to sit for 25 minutes prior to luminescent measurement in a white opaque 96-well plate on a microplate reader (BMG Labtech, Germany). Viability analysis was reported as percent of control by normalizing the ATP content of treated organoids relative to control organoids. […]

[2] = system: podocytes of the organoid glomeruli; assay: Immunofluorescence analysis of bio-printed organoid sections after Doxorubicin treatment; assay type: cell-based, human; details: 10 μM Doxorubicin, 72 hours
Description: For paraffin-embedded organoids, deparaffinized sections were antigen retrieved in citrate buffer, pH 6.0 (Diagnostic BioSystems, Pleasonton, CA #K035) then blocked in 5% chick serum diluted in TBS-T (v/v) prior to immunofluorescence. For whole mount organoids, organoid harvest, fixation and blocking, and immunofluorescence of prepared sections and whole organoids was performed as described previously (Vanslambrouck J M, et al. J Am Soc Nephrol 30, 1811-1823 (2019)). Images were obtained as described in Vanslambrouck J M, et al. or using an Andor spinning disk confocal microscope with Nikon 25×1.05NA silicone immersion objective.
Doxorubicin (Sigma-Aldrich, D1515) stock solution was prepared in DMSO. Amikacin, Tobramycin, Gentamycin, Neomycin, and Streptomycin were all procured through Sigma Aldrich (St. Louis, Mo.) and prepared as a 25 mg/ml solution in APEL media. Dosing for 6-well nephrotoxicity studies was performed by initially diluting doxorubicin DMSO stock in APEL media, and subsequently diluting further with additional media to achieve concentrations ranging from 0.3 to 10 μM. Dosing for 96-well nephrotoxicity evaluation was performed by serial dilution. For Doxorubicin, serial dilution of DMSO stocks was added to APEL media to achieve concentrations ranging from 24 nM to 25 μM. […]

[3] = system: bio-printed kidney organoids; assay: Quantitative RT-PCR gene expression analysis following drug exposure; assay type: cell-based, human; details: 72 hours
Description: as §1
Total RNA extraction from kidney organoids following drug exposure was performed using an Rneasy Mini kit (Qiagen, Germany) per manufacturer's instructions. RNA was quantified with spectrophotometry with a NanoDrop 2000 (Thermo Fisher, Carlsbad, Calif.). To analyse gene expression, TaqMan Fast One-Step qPCR Master Mix (Applied Biosystems, Foster City, Calif.), TaqMan Probes for genes of interest (ThermoFisher, Carlsbad, Calif.), and house-keeping gene probes (Applied Biosystems, Foster City, Calif.) were combined in assigned wells with RNA. All qPCR reactions were performed and analysed on a StepOnePlus qRT-PCR system (Applied Biosystems, Foster City, Calif.). All data was normalized to house-keeping gene GAPDH prior to normalizing to control samples.

[4] = 10 μM Doxorubicin, normalized to GAPDH and control

Row | Compound | IC50 ([1]; read-out: 6-well IC50 (viability, ATP content)) | IC50 ([1]; read-out: 96-well IC50 (viability, ATP content)) | Caspase 3 activation (cleaved caspase 3, apoptosis) in podocytes [2] | MAFB staining within podocytes of organoid glomeruli [2] | Expression of podocyte marker NPHS1 ([3]; 2 μM Doxorubicin) | Expression of podocyte marker PODXL ([3]; 2 μM Doxorubicin) | Expression of proximal tubule gene CUBN ([3]; 2 μM or 10 μM Doxorubicin) | Expression of apoptotic indicator Bcl2-associated X protein (BAX) [3, 4] | Expression of kidney injury molecule KIM1 (HAVCR) [3, 4] | Cell viability as measured by cellular ATP content [1]
1 | COc1cccc2c1C(=O)c1c(O)c3c(c(O)c1C2=O)C[C@@](O)(C(=O)CO)C[C@@H]3O[C@H]1C[C@H](N)[C@H](O)[C@H](C)O1 [Doxorubicin] | 3.9 ± 1.8 µM | 3.1 ± 1 µM | induction of apoptosis; also recorded: specific activation of caspase 3 | podocyte specific loss of MAFB expression; also recorded: loss of MAFB staining | downregulated | downregulated | only downregulated in response to 10 μM Doxorubicin | upregulation | upregulation | 
2 | Gentamycin |  |  |  |  |  |  |  |  |  | decreased in a concentration-dependent fashion
3 | Neomycin |  |  |  |  |  |  |  |  |  | decreased in a concentration-dependent fashion
